The record followed here is ChEMBL document CHEMBL3734667 (Bioorg Med Chem, 2015).

Bounds are passed on as bounds.

The nature of data set [1]: Cytotoxicity against human MT4 cells assessed as cell viability after 96 hrs by MTT assay. It is filed as cell-based. (In general: Formazan colour is commonly taken as a measure of viable cells.)
A short description of data set [2]: Cytotoxicity against MDBK cells assessed as cell viability after 48 to 96 hrs by MTT assay. It is filed as cell-based, Bos taurus. Particulars: cattle.
Data set [3] can be described thus: Cytotoxicity against BHK cells assessed as cell viability after 48 to 96 hrs by MTT assay. Particulars: hamster. The class given is cell-based, Mesocricetus auratus.
The nature of data set [4]: Cytotoxicity against african green monkey Vero 76 cells assessed as cell viability after 48 to 96 hrs by crystal violet staining method. It is filed as cell-based. Particulars: chlorocebus sabaeus.
The test system of data set [5] is Bovine viral diarrhea virus 1. The data set is described as follows: Antiviral activity against BVDV infected in MDBK cells assessed as inhibition of virus-induced cytopathogenicity after 3 to 4 days by MTT assay. The class given is functional, organism-based. Particulars: Bovine viral diarrhea virus isolates and strains.
The test system of the next data set is Yellow fever virus. The data set is described as follows: Antiviral activity against YFV infected in BHK-21 cells assessed as inhibition of virus-induced cytopathogenicity after 3 to 4 days by MTT assay. The class given is functional, organism-based. (In general: Cytopathic effects are the visible damage that an infection or toxin causes in cultured cells.)

The test system of data set [6] is Mammalian orthoreovirus 1. Briefly: Antiviral activity against Reo-1 virus infected in BHK-21 cells assessed as inhibition of virus-induced cytopathogenicity after 3 to 4 days by MTT assay. Particulars: Mammalian orthoreovirus 1, BHK-21. The class given is functional, cell-based.
The subject of data set [7] is Coxsackievirus B5. Briefly: Antiviral activity against human CVB5 infected in african green monkey Vero76 cells assessed as inhibition of virus-induced cytopathogenicity after 3 days by plaque reduction assay. It is filed as functional, organism-based. Particulars: Enterovirus B, Vero 76, 72 h.
For another data set, the system named is Human orthopneumovirus. Briefly: Antiviral activity against human RSV infected in african green monkey Vero76 cells assessed as inhibition of virus-induced cytopathogenicity after 5 days by plaque reduction assay. It is filed as functional, organism-based. Particulars: human respiratory syncytial virus, Vero 76, 120 h.
Another data set relates to Poliovirus 1. The data set is described as follows: Antiviral activity against Human poliovirus 1 Sabin infected in african green monkey Vero76 cells assessed as inhibition of virus-induced cytopathogenicity by plaque reduction assay. It is filed as functional, organism-based. Particulars: Enterovirus C, Vero 76.
The nature of data set [8]: Selectivity index, ratio of CC50 for african green monkey Vero76 cells to EC50 for human CVB5. Also on record: species or system Coxsackievirus B5, Vero 76.
In data set [9] the test system is Human immunodeficiency virus 1. The data set is described as follows: Antiviral activity against HIV-1 infected in MT4 cells assessed as inhibition of virus-induced cytopathogenicity after 4 days by MTT assay. The class given is functional, organism-based. Particulars: Human immunodeficiency virus 1, MT4, 96 h.
The test system of data set [10] is Coxsackievirus B5. Briefly: Ratio of NM108 EC50 to compound EC50 for human CVB5. The class given is functional.
The test system of data set [11] is Coxsackievirus B5. The data set is described as follows: Ratio of NM176 EC50 to compound EC50 for human CVB5. It is filed as functional.
The subject of a further data set is Human alphaherpesvirus 1. The data set is described as follows: Antiviral activity against HSV1. The class given is functional, organism-based.
For data set [12], the system named is Vesicular stomatitis virus. Briefly: Antiviral activity against VSV. The class given is functional, organism-based.
The subject of another data set is Vaccinia virus. Briefly: Antiviral activity against Vaccinia virus. The class given is functional, organism-based. Particulars: Orthopoxvirus vaccinia.

In general, CC50 refers to the concentration at which the toxic effect on the cells reaches its halfway point. As a reminder, the EC50 is the concentration at which the effect is half-maximal.

For `Cc1ccc2nn(-c3ccc(OCCCC(C)(C)C(=O)O)cc3)nc2c1`, in data set [1], the CC50 at 96 h stood at 53 µM. The CC50 in data set [2] came to 24 µM; in [3], 17 µM; in data set [4], 15 µM. Besides, the EC50 in data set [5] is over 100 µM; with Yellow fever virus, over 100 µM; in [6], over 100 µM; with Coxsackievirus B5 [7] it was 0.15 µM; in the data set with Human orthopneumovirus, over 100 µM; in the data set with Poliovirus 1, over 100 µM. The EC50 (in [9]; in the data set on Human alphaherpesvirus 1; in data set [12]; in the data set with Vaccinia virus) was over 100 µM each time. Also, the “Ratio CC50/EC50” value in [8] came out at 100. In addition, the “Ratio EC50” value in the data set on Coxsackievirus B5 [10] is 133; in the data set with Coxsackievirus B5 [11] it was 200.
